Reference: patent US20240116985A1, “STAPLED PEPTIDES AND METHODS THEREOF” (priority 2020, published 2024)

molecular target: T1, full-length beta-Catenin (Uniprot ID P35222) (Homo sapiens, UniProt P35222); assay: Fluorescence polarization IC50 (beta-catenin / 5FAM-TCF4 10-53 competition); assay type: binding; conditions: fluorescence polarization, beta-catenin; read-out: FP EC50
T1 construct: 10 nM full-length beta-Catenin (Uniprot ID P35222)
T1 sequence (P35222 1-781): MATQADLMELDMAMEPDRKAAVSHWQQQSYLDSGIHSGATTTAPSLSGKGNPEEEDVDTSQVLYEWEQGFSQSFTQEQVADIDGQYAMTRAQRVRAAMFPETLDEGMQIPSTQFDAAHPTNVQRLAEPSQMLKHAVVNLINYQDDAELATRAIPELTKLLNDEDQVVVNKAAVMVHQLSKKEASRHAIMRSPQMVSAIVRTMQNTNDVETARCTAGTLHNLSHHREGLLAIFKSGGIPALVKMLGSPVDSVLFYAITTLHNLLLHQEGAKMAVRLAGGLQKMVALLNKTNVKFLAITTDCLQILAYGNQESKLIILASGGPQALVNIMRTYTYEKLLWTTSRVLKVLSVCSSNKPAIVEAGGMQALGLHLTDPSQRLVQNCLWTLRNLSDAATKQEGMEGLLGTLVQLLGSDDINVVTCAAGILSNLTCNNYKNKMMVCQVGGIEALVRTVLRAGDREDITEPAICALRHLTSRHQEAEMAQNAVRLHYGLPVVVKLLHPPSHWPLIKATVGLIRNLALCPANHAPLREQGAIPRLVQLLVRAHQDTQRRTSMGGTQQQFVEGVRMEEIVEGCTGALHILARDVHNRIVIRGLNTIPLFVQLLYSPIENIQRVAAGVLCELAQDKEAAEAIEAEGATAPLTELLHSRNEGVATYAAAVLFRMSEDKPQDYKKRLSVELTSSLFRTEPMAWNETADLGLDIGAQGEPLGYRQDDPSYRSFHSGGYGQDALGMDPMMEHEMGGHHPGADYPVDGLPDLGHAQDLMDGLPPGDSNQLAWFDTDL

IC50 [nM]	Structure (SMILES)
57	CC(=O)N1CCC[C@]12CC=CCCCC1(CCCC=CCCCOC(=O)N3CC[C@@](C(=O)N[C@@H](Cc4ccccc4Cl)C(=O)N[C@@H](Cc4csc5ccccc45)C(=O)N[C@@H](CC(C)C)C(N)=O)(C3)NC(=O)[C@H](CC(C)C)NC(=O)[C@H](Cc3ccccc3)NC(=O)[C@H](C)NC(=O)[C@H](C)NC(=O)[C@H](CC(=O)O)NC(=O)[C@H](CC(=O)O)NC1=O)NC(=O)[C@H](CC(C)(C)C)NC(=O)[C@H](CC(=O)O)NC2=O (stereo partly drawn) [I-1416, Ac-PL3-Asp-Npg-B5-Asp-Asp-Ala-Ala-Phe-Leu-PyrS2-2C1F-BztA-Leu-NH2]
66	CC(=O)N1CCC[C@]12CC=CCCCC1(CCCC=CCCCCCC[C@@](C)(C(=O)N[C@@H](Cc3ccsc3)C(=O)N[C@@H](Cc3csc4ccccc34)C(=O)N[C@@H](CCC(N)=O)C(N)=O)NC(=O)[C@H](CC(N)=O)NC(=O)[C@H](Cc3ccccc3)NC(=O)[C@H](C)NC(=O)[C@H](C)NC(=O)[C@H](CN(CC(=O)O)C(C)C)NC(=O)[C@H](CC(=O)O)NC1=O)NC(=O)[C@H](CC(C)(C)C)NC(=O)[C@H](CC(=O)O)NC2=O (stereo partly drawn) [I-1452, Ac-PL3-Asp-Npg-B5-Asp-[iPr]GA-Ala-Ala-Phe-Asn-S8-3Thi-BztA-Gln-NH2]

same assay, conditions: fluorescence polarization; read-out: beta-Catenin FP IC50

IC50 [nM]	Structure (SMILES)
3720	CC(=O)N1CCC[C@]12CC=CCCCC1(CCCC=CCCCOC(=O)N3CC[C@@](C(=O)N[C@@H](Cc4cccc(C(N)=O)c4)C(=O)N[C@@H](Cc4csc5ccccc45)C(=O)N[C@@H](CCC(N)=O)C(N)=O)(C3)NC(=O)[C@H](CC(C)C)NC(=O)[C@H](Cc3ccccc3)NC(=O)[C@H](C)NC(=O)[C@H](CCCCNC(C)C)NC(=O)[C@H](CCC(N)=O)NC(=O)[C@H](CC(=O)O)NC1=O)NC(=O)[C@H](CC1CCCCC1)NC(=O)[C@H](CC(N)=O)NC2=O (stereo partly drawn) [I-2163, Ac-PL3-Asn-Cha-B5-Asp-Gln-iPrLys-Ala-Phe-Leu-PyrS2-3cbmf-BztA-Gln-NH2]
884	CC(=O)N1CCC[C@]12CC=CCCCC1(CCCC=CCCCOC(=O)N3CC[C@@](C(=O)N[C@@H](Cc4ccsc4)C(=O)N[C@@H](Cc4csc5ccccc45)C(=O)N[C@@H](CCC(N)=O)C(N)=O)(C3)NC(=O)[C@H](CCCNC(=N)N)NC(=O)[C@H](Cc3ccccc3)NC(=O)[C@H](C)NC(=O)[C@H](C)NC(=O)[C@H]([C@@H](C)O)NC(=O)[C@H](CC(N)=O)NC1=O)NC(=O)[C@H](CC(C)(C)C)NC(=O)[C@H](CC(=O)O)NC2=O (stereo partly drawn) [I-1883, Ac-PL3-Asp-Npg-B5-Asn-Thr-Ala-Ala-Phe-Arg-PyrS2-3Thi-BztA-Gln-NH2]
57	CC(=O)N1CCC[C@]12CC=CCCCC1(CCCC=CCCCOC(=O)N3CC[C@@](C(=O)N[C@@H](Cc4ccccc4Cl)C(=O)N[C@@H](Cc4csc5ccccc45)C(=O)N[C@@H](CC(C)C)C(N)=O)(C3)NC(=O)[C@H](CC(C)C)NC(=O)[C@H](Cc3ccccc3)NC(=O)[C@H](C)NC(=O)[C@H](C)NC(=O)[C@H](CC(=O)O)NC(=O)[C@H](CC(=O)O)NC1=O)NC(=O)[C@H](CC(C)(C)C)NC(=O)[C@H](CC(=O)O)NC2=O (stereo partly drawn) [I-1416, Ac-PL3-Asp-Npg-B5-Asp-Asp-Ala-Ala-Phe-Leu-PyrS2-2C1F-BztA-Leu-NH2]
183	CC(=O)N1CCC[C@]12CC=CCCCC1(CCCC=CCCCOC(=O)N3CC(C(=O)N[C@@H](Cc4ccccc4C(F)(F)F)C(=O)N[C@@H](Cc4csc5ccccc45)C(=O)N[C@@H](CCC(N)=O)C(N)=O)(C3)NC(=O)[C@H](CC(C)C)NC(=O)[C@H](Cc3ccccc3)NC(=O)[C@H](C)NC(=O)C(C)(C)NC(=O)[C@H](Cc3cccc(C(=O)O)c3)NC(=O)[C@H](CC(=O)O)NC1=O)NC(=O)[C@H](CC(C)(C)C)NC(=O)[C@H](CC(=O)O)NC2=O (stereo partly drawn) [I-2613, Ac-PL3-Asp-Npg-B5-Asp-3COOHF-Aib-Ala-Phe-Leu-Az2-2F3MeF-BztA-Gln-NH2]
567	CC(=O)N1CCC[C@]12CCCCCCC[C@@](C)(C(=O)N[C@@H](CC(=O)O)C(=O)N[C@@H](CC(=O)O)C(=O)N[C@@H](C)C(=O)N[C@@H](C)C(=O)N[C@@H](Cc1ccccc1)C(=O)N[C@@H](CC(C)C)C(=O)NC(C)(C)C(=O)N[C@@H](Cc1ccsc1)C(=O)N[C@@H](Cc1csc3ccccc13)C(=O)N[C@@H](CCC(N)=O)C(N)=O)NC(=O)[C@H](CC(C)(C)C)NC(=O)[C@H](CC(=O)O)NC2=O [I-1981, Ac-PL3-Asp-Npg-S6-Asp-Asp-Ala-Ala-Phe-Leu-Aib-3Thi-BztA-Gln-NH2]
390	CC(=O)N1CCC[C@]12CC=CCCCC1(CCCC=CCCCOC(=O)N3CC[C@@](C(=O)N[C@@H](Cc4ccsc4)C(=O)N[C@@H](Cc4csc5ccccc45)C(=O)N[C@@H](CCC(N)=O)C(N)=O)(C3)NC(=O)[C@H](Cc3c[nH]cn3)NC(=O)[C@H](Cc3ccccc3)NC(=O)[C@H](C)NC(=O)[C@H](C)NC(=O)[C@H]([C@@H](C)O)NC(=O)[C@H](CC(N)=O)NC1=O)NC(=O)[C@H](CC(C)(C)C)NC(=O)[C@H](CC(=O)O)NC2=O (stereo partly drawn) [I-2147, Ac-PL3-Asp-Npg-B5-Asn-Thr-Ala-Ala-Phe-His-PyrS2-3Thi-BztA-Gln-NH2]
357	CC(=O)N1CCC[C@]12CC=CCCCC1(CCCC=CCCCOC(=O)N3CC[C@@](C(=O)N[C@@H](Cc4ccccc4)C(=O)N[C@@H](Cc4csc5ccccc45)C(=O)N[C@@H](CCO)C(N)=O)(C3)NC(=O)[C@H](CC(N)=O)NC(=O)[C@H](Cc3ccccc3)NC(=O)[C@H](C)NC(=O)[C@H](Cc3c[nH]cn3)NC(=O)[C@H](CCC(N)=O)NC(=O)[C@H](CC(=O)O)NC1=O)NC(=O)[C@H](CC1CCCCC1)NC(=O)[C@H](CC(N)=O)NC2=O (stereo partly drawn) [I-2066, Ac-PL3-Asn-Cha-B5-Asp-Gln-His-Ala-Phe-Asn-PyrS2-Phe-BztA-Hse-NH2]
743	CC(=O)N1CCC[C@]12CC=CCCCC1(CCCC=CCCCOC(=O)N3CC[C@@](C(=O)N[C@@H](Cc4ccsc4)C(=O)N[C@@H](Cc4csc5ccccc45)C(=O)N[C@@H](CC(C)C)C(N)=O)(C3)NC(=O)[C@H](CC(N)=O)NC(=O)[C@H](Cc3ccccc3)NC(=O)[C@H](C)NC(=O)[C@H](C)NC(=O)[C@H]([C@@H](C)O)NC(=O)[C@H](CC(N)=O)NC1=O)NC(=O)[C@H](CC(C)(C)C)NC(=O)[C@H](CC(=O)O)NC2=O (stereo partly drawn) [I-1881, Ac-PL3-Asp-Npg-B5-Asn-Thr-Ala-Ala-Phe-Asn-PyrS2-3Thi-BztA-Leu-NH2]
660	CC(=O)N1CCC[C@]12CCCCCCC1(CCCCCCCCOC(=O)N3CC[C@@](C(=O)N[C@@H](Cc4ccsc4)C(=O)N[C@@H](Cc4csc5ccccc45)C(=O)N[C@@H](CC(C)C)C(N)=O)(C3)NC(=O)[C@H]([C@@H](C)O)NC(=O)[C@H](Cc3ccccc3)NC(=O)[C@H](C)NC(=O)[C@H](C)NC(=O)[C@H](CN(CC(=O)O)CC(F)(F)F)NC(=O)[C@H](CC(=O)O)NC1=O)NC(=O)[C@H](CC(C)(C)C)NC(=O)[C@H](CC(=O)O)NC2=O (stereo partly drawn) [I-1754, Ac-PL3-Asp-Npg-B5-Asp-TfeGA-Ala-Ala-Phe-Thr-PyrS2-3Thi-BztA-Leu-NH2]
66	CC(=O)N1CCC[C@]12CC=CCCCC1(CCCC=CCCCCCC[C@@](C)(C(=O)N[C@@H](Cc3ccsc3)C(=O)N[C@@H](Cc3csc4ccccc34)C(=O)N[C@@H](CCC(N)=O)C(N)=O)NC(=O)[C@H](CC(N)=O)NC(=O)[C@H](Cc3ccccc3)NC(=O)[C@H](C)NC(=O)[C@H](C)NC(=O)[C@H](CN(CC(=O)O)C(C)C)NC(=O)[C@H](CC(=O)O)NC1=O)NC(=O)[C@H](CC(C)(C)C)NC(=O)[C@H](CC(=O)O)NC2=O (stereo partly drawn) [I-1452, Ac-PL3-Asp-Npg-B5-Asp-[iPr]GA-Ala-Ala-Phe-Asn-S8-3Thi-BztA-Gln-NH2]
4860	CC(=O)N1CCC[C@]12CCCCCCC1(CCCCCCCCOC(=O)N3CC[C@@](C(=O)N[C@@H](Cc4ccsc4)C(=O)N[C@@H](Cc4csc5ccccc45)C(=O)N[C@@H](CCC(N)=O)C(N)=O)(C3)NC(=O)[C@H](CC(C)C)NC(=O)[C@H](Cc3ccccc3)NC(=O)[C@H](C)NC(=O)[C@H](CCO)NC(=O)[C@H](CCC(N)=O)NC(=O)[C@H](CC(=O)O)NC1=O)NC(=O)[C@H](CC1CCCCC1)NC(=O)[C@H](CC(N)=O)NC2=O (stereo partly drawn) [I-2451, Ac-PL3-Asn-Cha-B5-Asp-Gln-Hse-Ala-Phe-Leu-PyrS2-3Thi-BztA-Gln-NH2]
30	CCC(C)N(CC(=O)O)C[C@@H]1NC(=O)[C@H](CC(=O)O)NC(=O)C2(CCCC=CCCCOC(=O)N3CC[C@@](C(=O)N[C@@H](Cc4ccccc4Cl)C(=O)N[C@@H](Cc4csc5ccccc45)C(=O)N[C@@H](CCC(N)=O)C(N)=O)(C3)NC(=O)[C@H](CC(N)=O)NC(=O)[C@H](Cc3ccccc3)NC(=O)[C@H](C)NC(=O)[C@H](C)NC1=O)CCCC=CC[C@]1(CCCN1C(C)=O)C(=O)N[C@@H](CC(=O)O)C(=O)N[C@@H](CC(C)(C)C)C(=O)N2 (stereo partly drawn) [I-1623, Ac-PL3-Asp-Npg-B5-Asp-[sBu]GA-Ala-Ala-Phe-Asn-PyrS2-2C1F-BztA-Gln-NH2]
1900	CC(=O)N1CCC[C@]12CC=CCCCC1(CCCC=CCCCOC(=O)N3CC[C@@](C(=O)N[C@@H](Cc4ccsc4)C(=O)N[C@@H](Cc4csc5ccccc45)C(=O)N[C@@H](CCC(N)=O)C(N)=O)(C3)NC(=O)[C@H](CC(N)=O)NC(=O)[C@H](Cc3ccccc3)NC(=O)[C@H](C)NC(=O)[C@H](C)NC(=O)[C@H]([C@@H](C)O)NC(=O)[C@H](CC(N)=O)NC1=O)NC(=O)[C@H](CC(C)(C)C)NC(=O)[C@H](Cc1ccccc1C(=O)O)NC2=O (single isomer, unassigned) [I-2137, Ac-PL3-2COOHF-Npg-B5-Asn-Thr-Ala-Ala-Phe-Asn-PyrS2-3Thi-BztA-Gln-NH2]

Structure (SMILES)	IC50 [nM]
CC(=O)N1CCC[C@]12CC=CCCCC1(CCCC=CCCCOC(=O)N3CC[C@@](C(=O)N[C@@H](Cc4ccsc4)C(=O)N[C@@H](Cc4csc5ccccc45)C(=O)N[C@@H](Cc4c[nH]cn4)C(N)=O)(C3)NC(=O)[C@H]([C@@H](C)O)NC(=O)[C@H](Cc3ccccc3)NC(=O)[C@H](C)NC(=O)[C@H](C)NC(=O)[C@H]([C@@H](C)O)NC(=O)[C@H](CC(N)=O)NC1=O)NC(=O)[C@H](CC(C)(C)C)NC(=O)[C@H](CC(=O)O)NC2=O (stereo partly drawn) [I-2337, Ac-PL3-Asp-Npg-B5-Asn-Thr-Ala-Ala-Phe-Thr-PyrS2-3Thi-BztA-His-NH2]	311
